Reference: patent publication US10173999B2, “Cyclic amine derivative and pharmaceutical use thereof” (Toray Industries, Inc., priority 2015, dated 2019)
Counter-ions that a name gives are not always drawn.

Experiments:
[1] = system: human aortic smooth muscle cells (T/G HA-VSMG); assay: Inducibility of cytoplasmic vacuolation in human aortic smooth muscle cells; format: cell-based; conditions: Treatment time: 24 hours
Description: As a test compound, the compound of Example 3, 9, 11, 12 or compounds of Comparative Examples 2 to 6 were used. Canine aortic smooth muscle cells (Canine Aortic Smooth Muscle Cells, supply source: Toyobo Co., Ltd.) or human aortic smooth muscle cells of (T/G HA-VSMG, supply source: ATCC) were treated with a test compound (1.0 or 1.2 mmol/L in concentration) for 24 hours or 2 weeks. The cells were stained with HE, immunohistochemically for LAMP-2 or toluidine blue, and thereafter the presence or absence of cytoplasmic vacuolation was determined by using an optical microscope.

[2] = system: mouse partial sciatic nerve ligation model (neuropathic pain); assay: Mouse partial sciatic nerve ligation model (Seltzer model), von Frey test; format: in vivo; conditions: for persistence of analgesic action: oral administration, von Frey test at 1, 2, 3 h
Description: The mouse partial sciatic nerve ligation model was prepared in accordance with the method of Seltzer et al. (Malmberg et al., Pain, vol. 76, p. 215-222, 1998).
Slc: ICR mice (5 weeks old, male; from Japan SLC, Inc.) or Cr1: CD1 (ICR) mice (5 weeks old, male; from CHARLES RIVER LABORATORIES JAPAN, INC.) were anesthetized with sodium pentobarbital (70 mg/kg, intraperitoneal administration). The sciatic nerve at the femoral region of the right hind paw of each mouse was exposed and triply ligated tightly with silk suture of 8-0 (from NATSUME SEISAKUSHO CO., LTD.) under a stereomicroscope so that only half thickness of the nerve was trapped in the ligature. A group of mice thus treated was designated as a partial sciatic nerve ligation group. A group of mice whose sciatic nerve was just exposed and not ligated was designated as a sham surgery group.
Evaluation of neuropathic pain (hereinafter referred to as von Frey test) was performed as follows. Mice were conditioned for at least one hour in an acrylic cage for measurement (from NATSUME SEISAKUSHO CO. LTD. or SHINANO SEISAKUSHO) placed on a wire net. Thereafter, using a filament (from North Coast Medical or neuroscience) which exerted a pressure of 0.16 g, the mice were subjected to mechanical tactile stimulus by applying the filament to the plantar surface of the right hind paw 3 times, each for 3 seconds, with an interval of 3 seconds.
Seven days after the sciatic nerve ligation surgery, the compound of Example 1, 2, 3, 4, 5, 7, 8, 9, 10, 11, 12 or 13 (10 mg/kg for each of the compounds of Example 1, 2, 3, 4, 5, 8, 10 and 13, 0.01 to 1 mg/kg for the compound of Example 7, 0.01 to 10 mg/kg for the compound of Example 9; 0.001 to 0.1 mg/kg for the compound of Example 11; and 0.01 to 1 mg/kg for the compound of Example 12) or pregabalin as a positive control (10 mg/kg; Bosche Scientific) was dissolved in distilled water and orally administered to mice of the partial sciatic nerve ligation group. The groups of the mice in the partial sciatic nerve ligation mouse to which the compound of Example 1, 2, 3, 4, 5, 7, 8, 9, 10, 11, 12 or 13 was administered were designated as a “partial sciatic nerve ligation+the compound of Example 1” group; a “partial sciatic nerve ligation+the compound of Example 2” group; a “partial sciatic nerve ligation+the compound of Example 3” group; a “partial sciatic nerve ligation+the compound of Example 4” group; a “partial sciatic nerve ligation+the compound of Example 5” group; a “partial sciatic nerve ligation+the compound of Example 7” group; a “partial sciatic nerve ligation+the compound of Example 8” group; a “partial sciatic nerve ligation+the compound of Example 9” group; a “partial sciatic nerve ligation+the compound of Example 10” group; a “partial sciatic nerve ligation+the compound of Example 11” group; a “partial sciatic nerve ligation+the compound of Example 12” group; and a “partial sciatic nerve ligation+the compound of Example 13” group, respectively. The partial sciatic nerve ligation mouse group to which pregabalin was administered was designated as a “partial sciatic nerve ligation+pregabalin” group. A group wherein distilled water was orally administered to the mice of the partial sciatic nerve ligation group was designated as a “partial sciatic nerve ligation+distilled water” group. A group wherein distilled water was orally administered to the mice of the sham surgery group was designated as a “sham surgery+distilled water” group.
The von Frey test was carried out before oral administration of a test compound (pre-value), one hour, two hours, and three hours after the oral administration of a test compound.
Slc: ICR mice (5 weeks old, male; Japan SLC, Inc.) were anesthetized with sodium pentobarbital (70 mg/kg, intraperitoneal administration).

[3] = system: fibromyalgia syndrome model rats; assay: Rat fibromyalgia syndrome model (acidic saline), allodynia by von Frey filament; format: in vivo; conditions: Day 7, pregabalin 10 mg/kg
Description: To prepare a fibromyalgia syndrome model rat (Sluka et al., Journal of Pharmacology and Experimental Therapeutics, vol. 302, p. 1146-1150, 2002; Nagakura et al., Pain, vol. 146, p. 26-33, 2009; Sluka et al., Pain, vol. 146, p. 3-4, 2009), which is generally employed widely in basic research for fibromyalgia syndrome, acidic saline (100 μL) adjusted to pH 4.0 was intramuscularly injected to the gastrocnemius muscle of the right hind paw of Crl: CD(SD) rat (6 to 7 weeks old, male; from CHARLES RIVER LABORATORIES JAPAN, INC.) under continuous inhalation anesthesia with isoflurane, twice (once in each day of Day 1 and Day 6, wherein Day 1 was the date on which the acidic saline was initially administrated). The rats thus prepared were raised in a breeding room controlled at an indoor temperature of 21 to 25° C. and an indoor humidity of 40 to 70% under the conditions of voluntary intake of food and water. In the same manner, rats to which physiological saline in place of acidic saline was intramuscularly injected were raised. The rats thus raised and not afflicted with fibromyalgia syndrome (“physiological saline+distilled water” group in FIG. 13) were also used in the experiment.
Seven days after the initial administration of acidic saline, allodynia in each rat was measured. […] Note that, measurement of allodynia was performed by use of a von Frey filament (from North Coast Medical) in accordance with the method described in a known literature (Chaplan et al., Journal of Neuroscience Methods, vol. 53, p. 55-63, 1994).
The fibromyalgia syndrome model rats thus obtained are divided into groups such that the 50% response threshold (mean value of the right hind paw and the left hind paw) of the individual groups became equal, and a test compound was administered to the fibromyalgia syndrome model rats on Day 7 after the initial administration of acidic saline.
The compound of Example 11 (0.1 to 10 mg/kg) was dissolved in distilled water and then orally administered to fibromyalgia syndrome model rats (“acidic saline+the compound of Example 11” in FIG. 13). Pregabalin serving as a positive control (10 mg/kg; from KEMPROTEC) was dissolved in distilled water and then orally administered (“acidic saline+pregabalin” in FIG. 13). As a control, distilled water was orally administered to fibromyalgia syndrome model rats (“acidic saline+distilled water” in FIG. 13). Furthermore, distilled water was orally administered to rats not afflicted with fibromyalgia syndrome (“physiological saline+distilled water” in FIG. 13). One hour and three hours after the oral administration, allodynia in individual rats was measured to evaluate an analgesic action. At this time, the 50% response threshold value in the measurement of allodynia before oral administration of the test compound on Day 7 after initial administration of acidic saline was defined as the pre-value.
To prepare a fibromyalgia syndrome model rat (Sluka et al., Journal of Pharmacology and Experimental Therapeutics, vol. 302, p. 1146-50, 2002; Nagakura et al., Pain, vol. 146, p. 26-33, 2009; Sluka et al., Pain, vol. 146, p. 3-4, 2009), which is generally employed widely in basic research for fibromyalgia syndrome, acidic saline (100 μL) adjusted to pH 4.0 was intramuscularly injected to the gastrocnemius muscle of the right hind paw of Slc: (SD) rats (6 to 7 weeks old, male; from Japan SLC, Inc.) under continuous inhalation anesthesia with isoflurane, twice (once in each of Day 1 and Day 6, wherein Day 1 was the initial administration date of the acidic saline). The rats thus prepared were raised in a breeding room controlled at an indoor temperature of 21 to 25° C. and an indoor humidity of 40 to 70% under the conditions of voluntary intake of food and water. In the same manner, rats to which physiological saline was intramuscularly injected in place of acidic saline were raised. […]

[4] = oral, 7 days after ligation, 1-3 h after dosing, 10 mg/kg (Ex 1,2,3,4,5,8,10,13, pregabalin), 0.01-1 mg/kg (Ex 7,12), 0.01-10 mg/kg (Ex 9), 0.001-0.1 mg/kg (Ex 11), vs ligation+distilled water, Welch or Shirley-Williams test

| SMILES | analgesic action in von Frey test (total score) [2, 4] | further results |
| --- | --- | --- |
| CN(C)C1CCN(C(=O)CC(O)c2nccn2CC(F)(F)F)CC1 (centres unmarked) [Example 9, 1-(4-(dimethylamino)piperidin-1-yl)-3-hydroxy-3-(1-(2,2,2-trifluoroethyl)-1H-imidazol-2-yl)propan-1-one] | statistically significant analgesic action | Inducibility of cytoplasmic vacuolation ([1]; Concentration: 1.2 mmol/L): Absent; persistence of analgesic action [2]: persistence of analgesic action was confirmed |
| CCCCC(=O)OC(CC(=O)N1CCC(N(C)C)CC1)c1nccn1C (centres unmarked) [Example 13, 3-(4-(dimethylamino)piperidin-1-yl)-1-(1-methyl-1H-imidazol-2-yl)-3-oxopropylpentanoate] | statistically significant analgesic action | – |
| CCN(CC)C1CCN(C(=O)CC(O)c2nccn2C)CC1 (centres unmarked) [Example 2, 1-(4-(diethylamino)piperidin-1-yl)-3-hydroxy-3-(1-methyl-1H-imidazol-2-yl)propan-1-one] | statistically significant analgesic action | – |
| CN1CCN(C2CCN(C(=O)CC(O)c3nccn3C)CC2)CC1 (centres unmarked) [Example 3, 3-hydroxy-3-(1-methyl-1H-imidazol-2-yl)-1-(4-(4-methylpiperazin-1-yl)piperidin-1-yl)propan-1-one] | statistically significant analgesic action | Inducibility of cytoplasmic vacuolation ([1]; Concentration: 1.2 mmol/L): Absent |
| CN(C)C1CCN(C(=O)CC(O)c2nccn2C)CC1 (centres unmarked) [Example 7, 1-(4-(dimethylamino)piperidin-1-yl)-3-hydroxy-3-(1-methyl-1H-imidazol-2-yl)propan-1-one hydrochloride] | – | analgesic action in von Frey test (total score) ([2]; mouse, in vivo): statistically significant analgesic action; persistence of analgesic action [2]: persistence of analgesic action was confirmed |
| CN(C)[C@@H]1CCCN(C(=O)CC(O)c2nccn2C)C1 (some centres unmarked) [Example 4] | statistically significant analgesic action | – |
| CCn1ccnc1C(O)CC(=O)N1CCC(N(C)C)CC1 (centres unmarked) [Example 8, 1-(4-(dimethylamino)piperidin-1-yl)-3-(1-ethyl-1H-imidazol-2-yl)-3-hydroxypropan-1-one] | statistically significant analgesic action | – |
| CC(=O)OC(CC(=O)N1CCC(N(C)C)CC1)c1nccn1C (centres unmarked) [Example 12, 3-(4-(dimethylamino)piperidin-1-yl)-1-(1-methyl-1H-imidazol-2-yl)-3-oxopropyl acetate] | statistically significant analgesic action | Inducibility of cytoplasmic vacuolation ([1]; Concentration: 1.0 mmol/L): Absent; persistence of analgesic action [2]: persistence of analgesic action was confirmed |
| CCN(C)C1CCN(C(=O)CC(O)c2nccn2C)CC1 (centres unmarked) [Example 1, 1-(4-(ethylmethylamino)piperidin-1-yl)-3-hydroxy-3-(1-methyl-1H-imidazol-2-yl)propan-1-one] | statistically significant analgesic action | – |
| CN(C)C1CCN(C(=O)CC(O)c2nccn2C(F)F)CC1 (centres unmarked) [Example 10, 3-(1-(difluoromethyl)-1H-imidazol-2-yl)-1-(4-(dimethylamino)piperidin-1-yl)-3-hydroxypropan-1-one] | statistically significant analgesic action | – |
| CN(C)[C@@H]1CCN(C(=O)CC(O)c2nccn2C)C1 (stereo partly drawn) [Example 5, 1-((R)-3-(dimethylamino)pyrrolidin-1-yl)-3-hydroxy-3-(1-methyl-1H-imidazol-2-yl)propan-1-one] | statistically significant analgesic action | – |
| CC(C)C[C@H](CN)CC(=O)O [pregabalin] | – | allodynia (50% response threshold) vs acidic saline+distilled water group ([3]; Comparative Example 8: oral, Comparative Example 1 0.1 to 1 mg/kg, 1, 2 and 3 h after dosing): statistically significantly improved; allodynia (50% response threshold) vs acidic saline+distilled water group ([3]; Example 15: oral, Example 11 0.1 to 10 mg/kg, 1 and 3 h after dosing): statistically significantly improved; analgesic action in von Frey test (total score) ([2]; mouse, in vivo): statistically significant analgesic action |
